Reference: US20220306585A1, “PYRAZOLE DERIVATIVES FOR CONTROLLING ARTHROPODS” (Bayer Animal Health GmbH, priority 2019, published 2022)
Converted amounts (≈) assume the structure as drawn.

Columns and labels:
[1] = Measurement of solubility in buffer at pH 6.5; format: physicochemical; conditions: aqueous buffer, kinetic from dmso stock; PBS buffer pH 6.5, shaken 24 h at rt, LC-MSMS; read-out: Solubility of example compounds at pH 6.5
Procedure: Measurement of Solubility in Buffer at pH 6.5 2-4 mg of the test compound are dissolved in DMSO to reach a concentration of 50 g/L (solution A). To 10 μL of this solution 960 μL PBS buffer pH 6.5 are added (final concentration: […]); the mixture is shaken for 24 h at rt in a 96 well plate. An aliquot is centrifuged at 42000 rpm für 30 min. The supernatant is diluted with acetonitrile/water (8:2) 1:10 and 1:1000 resp. This diluted samples are analyzed by LC-MSMS. Calibration: 10 μL of solution A are diluted with 823 μL DMSO (final concentration: 600 μg/mL), which is further diluted with acetonitrile/water 8:2 by a factor of 100 (provides solution B). The calibration curve is obtained from solution B by further diluting with acetonitrile/water 8:2 with target concentrations of 1.2-12-60-600 ng/mL and injecting these four solutions for MS measurement. PBS-Puffer: 6.18 g sodium chloride and 3.96 g sodium dihydrogen phosphate are dissolved in 1 L aqua dist., the pH is adjusted to 6.5 with IN sodium hydroxide.

[2] = Measurement of stability of prodrugs in buffer at pH 7.4; format: physicochemical; conditions: PBS buffer pH 7.4, 37° C., HPLC peak area, read-out: % Recovery after 24 h (stability at pH 7.4)
Procedure: Preparation of the PBS buffer solution pH 7.4: 90 g sodium chloride, 13.61 g potassium dihydrogen phosphate, 83.35 g 1M aqueous sodium hydroxide were dissolved in water. More water was added up to a total volume of 1 L. This solution was diluted 1:10 with water. Eventually, pH was adjusted to pH 7.4 by the addition of phosphoric acid.
Measurement of Stability of Prodrugs in Buffer at pH 7.4
0.15 mg of the test compound were dissolved in 0.1 mL dimethylsulfoxide and 0.4 mL acetonitrile. For complete dissolution, the HPLC vial with the sample solution was shaken and treated with ultrasound. Then, 1.0 mL of PBS buffer solution pH 7.4 was added and the sample was vortexed. The sample solution was analysed by HPLC (method 8) to determine the amount of the test compound at a particular time over a period of 24 h at 37° C. The peak areas, given as percentage of total area, are used for quantification. In addition, the reaction mixture was analysed by method 9 (HPLC-MS) at the final timepoint.

[3] = Degradation of prodrugs and release of parent drug in rat plasma; format: in vitro ADME; conditions: male, Hannover-Janvier RjHan, rat plasma (Li-heparin), 37° C., percent area of prodrug at t0
Procedure: Measurement of Release of Parent Drug in Rat Plasma 1 mg of the test compound was dissolved in 0.5 mL acetonitrile/dimethylsulfoxide 9:1. For complete dissolution the HPLC vial was shaken and treated with ultrasound. 20 μL of this solution were added to 1 mL of rat plasma (Li-heparin plasma, Hannover-Janvier rat, RjHan male) with vortexing at a temperature of 37° C. Aliquots (100 μL each) were taken at 0.17, 0.5, 1, 1.5, 2 and 4 hours. Each aliquot was transferred to a vial containing 300 μL of acetonitrile/citric acid buffer pH 3 8:2. These solutions were centrifuged at 5000 rpm for 10 minutes. The supernatant was analysed by HPLC (Method 8) to determine the amount of the test compound. In addition, the reaction mixture was analysed by method 9 (HPLC-MS) at the final timepoint. Both decrease of the prodrug concentration and increase of parent drug concentration were monitored. All data is given as percent area of the prodrug at to.

[4] = tested on: Ctenocephalides felis adult; experiment: Antiparasitic activity after administration to rats: fleas; format: in vivo
Procedure: (§1) Measurement of the Antiparasitic Activity after Administration of a Prodrug to Rats Compounds were dissolved in the appropriate volume of glycerol formal (p.a.) just before application to the animals (dose volume was adjusted to 0.03 mL/kg bodyweight). 5 rats per group were either injected intraperitoneally or subcutaneously. Rats were infested with 30 Dermacentor variabilis nymphs on study days −2, 7, 14, 21, 28, 35 and 30 adult Ctenocephalides fleas on study days −1, 8, 15, 22, 29, 36. Parasite counts were performed on study days 2, 9, 16, 23, 30, 37. Percent efficacy was calculated as arithmetic mean parasite numbers as life attached tick numbers and live flea numbers of the respective study group in comparison to parasite counts on a placebo-treated control group. Infestation of groups with less than 75% efficacy on two consecutive counting occasions will terminated for the respective parasite.

[5] = tested on: Dermacentor variabilis nymph; experiment: Antiparasitic activity after administration to rats: ticks; format: in vivo
Procedure: as §1

[6] = sc, versus parent drug also injected subcutaneously

SMILES | solubility at 24 h [1] | recovery at 24 h, 0.1 mg/mL [2] | recovery at 0.17 h, 39 µg/mL [3] | recovery at 0.5 h, 39 µg/mL [3] | recovery at 1 h, 39 µg/mL [3] | recovery at 1.5 h, 39 µg/mL [3] | recovery at 2 h, 39 µg/mL [3] | recovery at 4 h, 39 µg/mL [3] | further results
Cn1nc(C(F)(F)C(F)(F)F)c(C(F)(F)F)c1-n1cc(-c2ccc(Cl)c(C(=O)N(COC(=O)C3CC3C(=O)O)C3(C#N)CC3)c2)cn1 (stereo not shown) [Example 1, 2-({[{2-Chloro-5-[2′-methyl-5′-(pentafluoroethyl)-4′-(trifluoromethyl)-2′H-[1,3′-bipyrazol]-4-yl]benzoyl}(1-cyanocyclopropyl)amino]methoxy}carbonyl)cyclopropane-1-carboxylic acid] | 331 µg/mL (≈ 476 µM) | 100% | 93% | 88% | 80% | 74% | 66% | 49% | flea efficacy on rats compared with parent drug [4, 6]: superior; tick efficacy on rats compared with parent drug [5, 6]: superior
Cn1nc(C(F)(F)C(F)(F)F)c(C(F)(F)F)c1-n1cc(-c2ccc(Cl)c(C(=O)N(COC(=O)CC(C)(C)C(=O)O)C3(C#N)CC3)c2)cn1 [Example 2, 4-{[{2-Chloro-5-[2′-methyl-5′-(pentafluoroethyl)-4′-(trifluoromethyl)-2′H-[1,3′-bipyrazol]-4-yl]benzoyl}(1-cyanocyclopropyl)amino]methoxy}-2,2-dimethyl-4-oxobutanoic acid] | 71 µg/mL (≈ 99.9 µM) | 55% | – | – | – | – | – | – | –
N#CC1(N(COC(=O)c2ccc(C(=O)O)cc2)C(=O)c2cc(-c3cnn(-c4c(Cl)cc(C(F)(C(F)(F)F)C(F)(F)F)cc4OC(F)(F)F)c3)ccc2Cl)CC1 [Example 3, 4-({[(2-Chloro-5-{1-[2-chloro-4-(1,1,1,2,3,3,3-heptafluoropropan-2-yl)-6-(trifluoromethoxy)phenyl]-1H-pyrazol-4-yl}benzoyl)(1-cyanocyclopropyl)amino]methoxy}carbonyl)benzoic acid] | 3 µg/mL (≈ 3.63 µM) | 99% | 100% | 100% | 100% | 100% | 100% | 100% | In-vivo Efficacy SD2 ([4]; 12.74 mg/kg sc, Ctenocephalides felis adult, study day 2): 100%; In-vivo Efficacy SD9 ([4]; 12.74 mg/kg sc, Ctenocephalides felis adult, study day 9): 100%; In-vivo Efficacy SD16 ([4]; 12.74 mg/kg sc, Ctenocephalides felis adult, study day 16): 100%; In-vivo Efficacy SD23 ([4]; 12.74 mg/kg sc, Ctenocephalides felis adult, study day 23): 96%; In-vivo Efficacy SD30 ([4]; 12.74 mg/kg sc, Ctenocephalides felis adult, study day 30): 80%; In-vivo Efficacy SD37 ([4]; 12.74 mg/kg sc, Ctenocephalides felis adult, study day 37): 55%; In-vivo Efficacy SD2 ([5]; 12.74 mg/kg sc, Dermacentor variabilis nymph, study day 2): 99%; In-vivo Efficacy SD9 ([5]; 12.74 mg/kg sc, Dermacentor variabilis nymph, study day 9): 98%; In-vivo Efficacy SD16 ([5]; 12.74 mg/kg sc, Dermacentor variabilis nymph, study day 16): 93%; In-vivo Efficacy SD23 ([5]; 12.74 mg/kg sc, Dermacentor variabilis nymph, study day 23): 96%; In-vivo Efficacy SD30 ([5]; 12.74 mg/kg sc, Dermacentor variabilis nymph, study day 30): 85%; In-vivo Efficacy SD37 ([5]; 12.74 mg/kg sc, Dermacentor variabilis nymph, study day 37): 48%
Cn1nc(C(F)(F)C(F)(F)F)c(C(F)(F)F)c1-n1cc(-c2ccc(Cl)c(C(=O)N(COC(=O)C3(C(=O)O)CC3)C3(C#N)CC3)c2)cn1 [Example 5, 1-({[{2-Chloro-5-[2′-methyl-5′-(pentafluoroethyl)-4′-(trifluoromethyl)-2′H-[1,3′-bipyrazol]-4-yl]benzoyl}(1-cyanocyclopropyl)amino]methoxy}carbonyl)cyclopropane-1-carboxylic acid] | 171 µg/mL (≈ 246 µM) | 71% | – | – | – | – | – | – | –
Cn1nc(C(F)(F)C(F)(F)F)c(C(F)(F)F)c1-n1cc(-c2ccc(Cl)c(C(=O)N(COC(=O)CCC(=O)O)C3(C#N)CC3)c2)cn1 [Example 6, 4-{[{2-Chloro-5-[2′-methyl-5′-(pentafluoroethyl)-4′-(trifluoromethyl)-2′H-[1,3′-bipyrazol]-4-yl]benzoyl}(1-cyanocyclopropyl)amino]methoxy}-4-oxobutanoic acid] | 200 µg/mL (≈ 293 µM) | 90% | – | – | – | – | – | – | –

More lines, main results first:

solubility at 24 h [1] | recovery at 24 h, 0.1 mg/mL [2] | recovery at 0.17 h, 39 µg/mL [3] | recovery at 0.5 h, 39 µg/mL [3] | recovery at 1 h, 39 µg/mL [3] | recovery at 1.5 h, 39 µg/mL [3] | recovery at 2 h, 39 µg/mL [3] | recovery at 4 h, 39 µg/mL [3] | SMILES | further results
– | 96% | 84% | 58% | 26% | 10% | 4% | 0% | Cn1nc(C(F)(F)C(F)(F)F)c(C(F)(F)F)c1-n1cc(-c2ccc(Cl)c(C(=O)N(COC(=O)/C=C/C(=O)O)C3(C#N)CC3)c2)cn1 [Example 7, (2E)-4-{[{2-Chloro-5-[2′-methyl-5′-(pentafluoroethyl)-4′-(trifluoromethyl)-2′H-[1,3′-bipyrazol]-4-yl]benzoyl}(1-cyanocyclopropyl)amino]methoxy}-4-oxobut-2-enoic acid] | –
31 µg/mL (≈ 42.4 µM) | 100% | 99% | 98% | 96% | 94% | 92% | 85% | Cn1nc(C(F)(F)C(F)(F)F)c(C(F)(F)F)c1-n1cc(-c2ccc(Cl)c(C(=O)N(COC(=O)c3ccc(C(=O)O)cc3)C3(C#N)CC3)c2)cn1 [Example 10, 4-({[{2-Chloro-5-[2′-methyl-5′-(pentafluoroethyl)-4′-(trifluoromethyl)-2′H-[1,3′-bipyrazol]-4-yl]benzoyl}(1-cyanocyclopropyl)amino]methoxy}carbonyl)benzoic acid] | –
46 µg/mL (≈ 62.4 µM) | 100% | 91% | 70% | 49% | 33% | 22% | 0% | Cn1nc(C(F)(F)C(F)(F)F)c(C(F)(F)F)c1-n1cc(-c2ccc(Cl)c(C(=O)N(COC(=O)[C@H]3CC[C@H](C(=O)O)CC3)C3(C#N)CC3)c2)cn1 [Example 12, (trans)-4-({[{2-Chloro-5-[2′-methyl-5′-(pentafluoroethyl)-4′-(trifluoromethyl)-2′H-[1,3′-bipyrazol]-4-yl]benzoyl}(1-cyanocyclopropyl)amino]methoxy}carbonyl)cyclohexane-1-carboxylic acid] | –
5 µg/mL (≈ 6.19 µM) | 63% | – | – | – | – | – | – | CC(C)(CC(=O)OCN(C(=O)c1cc(-c2cnn(-c3c(Cl)cc(C(F)(C(F)(F)F)C(F)(F)F)cc3OC(F)(F)F)c2)ccc1Cl)C1(C#N)CC1)C(=O)O [Example 14, 4-{[(2-Chloro-5-{1-[2-chloro-4-(1,1,1,2,3,3,3-heptafluoropropan-2-yl)-6-(trifluoromethoxy)phenyl]-1H-pyrazol-4-yl}benzoyl)(1-cyanocyclopropyl)amino]methoxy}-2,2-dimethyl-4-oxobutanoic acid] | –
